The source of these data is patent US20230203480A1, “LIPID NANOPARTICLE FORMULATIONS FOR CRISPR/CAS COMPONENTS” (Intellia Therapeutics, Inc., priority 2016, published 2023).

Molecules are shown by their SMILES. A value given as a limit tells only on which side of the number the result lay.

A short description of the series: Pharmacokinetic profile of Lipid A in liver and plasma (LC/MS). The class given is in vivo, mouse. As to conditions: mice, after LNP administration. The method, then: Three different guide sequences were separately formulated, according to Example 1, and injected into mice (n=3) to determine the pharmacokinetic profile of Lipid A. Levels of Lipid A in mouse liver and plasma were measured by LC/MS. […] Tmax in liver was achieved within 30 minutes of administration, whereas T112 in plasma and liver were achieved within approximately 5-6 hours of LNP administration.

As to `CCCCC/C=C\C/C=C\CCCCCCCC(=O)OCC(COC(=O)CCC(OCCCCCCCC)OCCCCCCCC)COC(=O)OCCCN(CC)CC` (stereo not drawn) [Lipid A, (9Z,12Z)-3-((4,4-bis(octyloxy)butanoyl)oxy)-2-((((3-(diethylamino)propoxy)carbonyl)oxy)methyl)propyl octadeca-9,12-dienoate], the T112 in liver fell in the range of 5 to 6 h and the T112 in plasma fell in the range of 5 to 6 h. The Tmax (CD-1, mouse, liver, intravenous) was at most 30 min.
